Test results published in patent US20100063583A1, “USE OF SOLUBLE EPOXIDE HYDROLASE INHIBITORS IN THE TREATMENT OF INFLAMMATORY VASCULAR DISEASES” (Arete Therapeutics, Inc., priority 2008, published 2010).
Entries after “also recorded” stand apart in the source; their conditions may differ.

Legend:
[1] = tested on: angiotensin II infused apolipoprotein E deficient mice; experiment: Ligation-induced vascular remodeling in the left carotid artery; assay type: in vivo
Protocol: (§1) Six-month old male apoE deficient mice (The Jackson Laboratory, Bar Harbor, Me.) fed a normal chow (Harlan Teklad diet #2018, Harlan Laboratories, Inc., Indianapolis, Ind.) were used in this study. Baseline blood pressure and body weight were measured before surgery. Animals were anesthetized by inhalation of 2% isoflurane. The left common carotid artery was carefully dissected via a midline neck incision under a dissecting microscope, and then ligated with a 6-0 silk ligature just proximal to its bifurcation. At the time of ligation, a minipump (model 2004, Durect Corp., Cupertino, Calif.) filled with Ang II (1.44 mg/Kg/day, Phoenix Pharmaceuticals, Burlingame, Calif.) was implanted subcutaneously. The animals were randomly divided into 2 groups; Vehicle: drinking water containing 5% hydroxypropyl-beta-cyclodextrin (HPBCD) or Compound 2 in drinking water containing 1.5 mg/mL Compound 2 in 5% HPBCD. Each experimental group included 11 animals. After 4 weeks of Ang II infusion, systolic blood pressure was measured in conscious mice using a tail-cuff system (Kent Scientific Corporation, Torrington, Conn.), and the animals were euthanized. […]
Ligation of the left carotid arteries for four weeks induced vascular remodeling, including neointima formation and adventitial proliferation, leading to expansive remodeling as measured by enlargement of vessel diameter. […]

[2] = tested on: angiotensin II infused apolipoprotein E deficient mice; experiment: Atherosclerotic lesion development in aortic arch and non-ligated right carotid artery of Ang II infused apoE deficient mice; assay type: in vivo; details: vs vehicle
Protocol: (§2) Six-month old apolipoprotein E deficient mice were chronically infused with angiotensin II (1.44 mg/Kg/day) for 4 weeks to induce an abdominal aortic aneurysm (AAA) and accelerate atherosclerosis development. The mice were treated with Compound 2 (1.5 g/L in drinking water) or vehicle for 4 weeks. […] These effects were associated with a reduction of serum lipid, IL-6, murine IL-8 KC and IL-1α, and down-regulation of gene expressions of ICAM-1, VCAM-1 and IL-6 in the arterial wall. […] The attendant down-regulation of inflammatory mediators and lipid lowering effects may both contribute to the observed vascular protective effects.
as §1

[3] = tested on: circulating IL-6, murine IL-8-KC, IL-1α, serum lipid; experiment: Serum inflammatory panel and serum lipid in Ang II infused apoE deficient mice; assay type: in vivo
Protocol: (§3) Six-month old male apoE deficient mice (The Jackson Laboratory, Bar Harbor, Me.) fed a normal chow (Harlan Teklad diet #2018, Harlan Laboratories, Inc., Indianapolis, Ind.) were used in this study. Baseline blood pressure and body weight were measured before surgery. Animals were anesthetized by inhalation of 2% isoflurane. The left common carotid artery was carefully dissected via a midline neck incision under a dissecting microscope, and then ligated with a 6-0 silk ligature just proximal to its bifurcation. At the time of ligation, a minipump (model 2004, Durect Corp., Cupertino, Calif.) filled with Ang II (1.44 mg/Kg/day, Phoenix Pharmaceuticals, Burlingame, Calif.) was implanted subcutaneously. The animals were randomly divided into 2 groups; Vehicle: drinking water containing 5% hydroxypropyl-beta-cyclodextrin (HPBCD) or Compound 2 in drinking water containing 1.5 mg/mL Compound 2 in 5% HPBCD. Each experimental group included 11 animals. After 4 weeks of Ang II infusion, systolic blood pressure was measured in conscious mice using a tail-cuff system (Kent Scientific Corporation, Torrington, Conn.), and the animals were euthanized. Blood samples were collected via cardiac puncture for the measurement of a serum cholesterol profile (IDEXX Veterinary Services, West Sacramento, Calif.) and serum inflammatory panel (Murigenics, Hayward, Calif.) using a mouse cytokine/chemokine panel kit (Millipore, Billerica, Mass.), and tissues were removed for analysis (see below).
(§4) Using the animal model as reported in Martin-McNulty B, et al., 17 Beta-estradiol attenuates development of angiotensin II-induced aortic abdominal aneurysm in apolipoprotein E-deficient mice. Arterioscler Thromb Vasc Biol. 2003; 23(9):1627-1632 and Tham D M, et al., Angiotensin II is associated with activation of NF-kappaB-mediated genes and downregulation of PPARs. Physiol Genomics.

[4] = tested on: VCAM-1, ICAM-1, IL-6, IL-1α and PPARs gene expression in the ascending aortic tissue; experiment: Expression of pro-inflammatory genes in ascending aortic tissue; assay type: in vivo, mice; details: vs vehicle
Protocol: as §3, §4

[5] = tested on: angiotensin II infused apolipoprotein E deficient mice; experiment: Angiotensin II-induced abdominal aortic aneurysm formation in apoE deficient mice; assay type: in vivo
Protocol: as §2, §3
Chronic infusion of Ang II induced aneurysm formation in the abdominal aorta in 7 of 11 (64%) control apoE deficient mice. Treatment with Compound 2 reduced the incidence of aneurysm formation to 18% (2 of 11). […] There was no type VI aneurysm found in this study.
There were foci of acute hemorrhage present in the intima. The intima was occasionally disrupted by plaques of Mac-3-positive foam cells on the luminal side of the internal elastic lamina. […] The thickness of the media was increased by extracellular matrix depositing between smooth muscle bundles and stained with trichrome as collagen. Elastin fibers in the media were discontinuous and irregularly oriented. The adventitia was markedly thickened by extracellular matrix that was predominately collagen. There was a modest increase in adventitial cellularity including fibroblasts and Mac-3-positive mononuclear cells. […] These vessels did have medial changes including collagen deposition and some increase in elastin fibers, but the internal elastic lamina generally remained intact and retained a distinctive media of smooth muscle.

[6] = ascending aortic tissue / arterial wall

O=C(Nc1ccc(OC(F)(F)F)cc1)NC1CCN(C(=O)c2cccnc2)CC1 [Compound 2, 1-(1-nicotinoylpiperidin-4-yl)-3-(4-(trifluoromethoxy)phenyl)urea]
average diameter of the ligated carotid arteries ([1]; Compound 2 vs vehicle group, four weeks): not significantly different | ligation-induced vascular remodeling (neointima formation, adventitial proliferation, expansive remodeling) ([1]; left carotid artery ligated four weeks): not affected | atherosclerotic lesion area (overall) ([2]; 1.5 g/L in drinking water, 4 weeks Ang II infusion): significantly reduced | atherosclerotic lesion size/area in the aortic arch ([2]; 4 weeks): significantly reduced | atherosclerotic lesion size/area in the carotid artery ([2]; non-ligated right carotid artery, 4 weeks): significantly reduced | serum lipid ([3]; 4 weeks treatment): reduction | circulating protein level of IL-6 ([3]; vs vehicle group): reduction; also recorded: significantly lower | circulating protein level of murine IL-8-KC ([3]; vs vehicle group): reduction; also recorded: significantly lower | serum IL-1α ([3]; vs vehicle group): reduction; also recorded: reduced | ICAM-1 gene expression [4, 6]: down-regulation; also recorded: significantly reduced | IL-6 gene expression [4, 6]: down-regulation; also recorded: significantly reduced | VCAM-1 gene expression [4, 6]: down-regulation; also recorded: significantly reduced | IL-1α gene expression ([4]; ascending aortic tissue): did not significantly affect | PPARs gene expression ([4]; ascending aortic tissue): did not significantly affect | average outer diameter of the suprarenal aorta ([5]; 1.5 mg/mL in drinking water, 4 weeks, vs vehicle group): significantly smaller | AAA formation (rate), effect in words ([5]; 1.5 g/L in drinking water, 4 weeks Ang II infusion, vs vehicle): significantly reduced; also recorded: partially prevented | incidence of aneurysm formation ([5]; Compound 2 1.5 mg/mL in drinking water (5% HPBCD), 4 weeks Ang II 1.44 mg/Kg/day, 2 of 11 mice, vehicle 64%): 18% | aneurysm severity measured by category score ([5]; mice that developed aneurysm, vehicle group majority type III): majority with type 0 and I | adventitia thickness (histology) ([5]; vs vehicle group (markedly thickened), 4 weeks): relatively thin | intimal plaques in aorta (histological staining) ([5]; vs vehicle group, 4 weeks): fewer intimal plaques | macrophage and iron accumulation in the adventitia ([5]; vs vehicle group, 4 weeks): less macrophage and no iron accumulation | macrophage and iron accumulation in the intima (Mac-3, Prussian blue) ([5]; vs vehicle group, 4 weeks): no evidence of macrophage and iron accumulation
